# Source: US12715891B2, “Iron complexes and salts thereof as contrast agents for MRI” (BRACCO IMAGING S.P.A., priority 2020, dated 2026)
# Tests used:
# [1] = Fixed-field relaxometric measurements in human serum and in water; assay type: physicochemical; settings: for r1p / r2p: 1 T, 37° C.
# Method: Fixed-field relaxometric measurements were performed using the [Fe(DFX)2Meg3] complex obtained as per Example 1, comparing it with two prior art complexes, Gd-DTPA and Fe-DTPA.
# [2] = system: mice inoculated with tumour cells (ISA); assay: In vivo MRI contrast enhancement (En %); settings: 0.1 mmol/Kg
# Method: The increase in contrast (En %) generated by the administration of the complex according to the present invention Fe(DFX)2, obtained as per Example 1 (0.1 mmol/Kg), was measured and compared with the one induced by the Gd-DTPA complex (known by the trade name of Magnevist) at the same dose and under the same experimental conditions. The measurements were performed (in vivo), under a fixed magnetic field of 3T and 7T, in mice inoculated with tumour cells (ISA). The images were acquired when the size of the subcutaneous tumour had reached about 1-2 cm (i.e. about 15-20 days after inoculation).
compound,measurement,setting,value
"CNC[C@H](O)[C@@H](O)[C@H](O)[C@H](O)CO.CNC[C@H](O)[C@@H](O)[C@H](O)[C@H](O)CO.O=C([O-])CN(CCN(CC(=O)[O-])CC(=O)O)CCN(CC(=O)[O-])CC(=O)O.[Gd+3] [Gd-DTPA, gadopentetic acid]",r1p,[1]; Human serum,"4.1 (1 T, 37° C.)"
same,r2p,[1]; Human serum,"4.8 (1 T, 37° C.)"
same,relaxivity in human serum,"[1]; human serum, 37° C. and 1T",3.4 mM⁻¹ s⁻¹
same,r1p,[1]; water,"3.4 (1 T, 37° C.)"
same,r2p,[1]; water,"3.9 (1 T, 37° C.)"
same,renal excretion (kidneys and bladder contrast) compared with Fe(DFX)2,[2],more rapid renal excretion
